Converted amounts (≈) assume the structure as drawn. Where two headings read alike, the source gives them in different places.
Experiments:
[1] = system: Enterococcus faecium; test: Minimal bactericidal concentration (MBC) assay; type: cell-based; conditions: purified compound, read-out: MBC90
Procedure: (§1) Briefly, compound was washed by centrifugation and serial dilution, before plating on Tryptic Soy Agar (TSA). Plates were incubated for 24 hours at 37° C. and cell viability assessed by determining CFU/ml at each concentration, for every compound. Percent recovery was then determined compared to CFU/ml from no drug controls. All concentrations and controls were tested using three biological replicates, alongside two technical replicates for each data point.

[2] = system: Klebsiella pneumoniae; test: Minimal bactericidal concentration (MBC) assay; type: cell-based; conditions: purified compound, read-out: MBC90
Procedure: as §1

[3] = system: Staphylococcus aureus; test: Minimal bactericidal concentration (MBC) assay; type: cell-based; conditions: purified compound, read-out: MBC90
Procedure: as §1

[4] = system: Enterobacter cloacae; test: Minimal bactericidal concentration (MBC) assay; type: cell-based; conditions: Enterobacter cloacae; purified compound; read-out: MBC90
Procedure: as §1

[5] = system: Pseudomonas aeruginosa; test: Minimal bactericidal concentration (MBC) assay; type: cell-based; conditions: Pseudomonas aeruginosa; purified compound; read-out: MBC90
Procedure: as §1

[6] = system: Acinetobacter baumannii; test: Minimal bactericidal concentration (MBC) assay; type: cell-based; conditions: purified compound, read-out: MBC90
Procedure: as §1

[7] = system: Staphylococcus aureus (USA300 strain FPR3757); test: Murine model of lethal peritonitis; type: in vivo, mice; conditions: 2× MIC, I.M., 1 h post-infection, six mice per group
Procedure: Using MRSA as a representative ESKAPE organism, we infected mice with 1×10^8 bacterial cells in 5% mucin via intraperitoneal injection. At 1 h post-infection, mice were then I.V. injected with either vancomycin (positive control), or I.M. with our front runner compounds.
Six mice per group were injected with 1×10^8 CFU ml^−1 of Staphylococcus aureus (USA300 strain FPR3757) in PBS containing 5% mucin. […] Mice were monitored twice daily for five days to assess mortality. The clinical endpoint of this study was when the mice reached a pre-moribund state. Characteristics of pre-moribund state include: hunched posture, rapid, shallow and/or labored breathing, ruffled fur, lethargy, failure to respond to stimuli, soiled anogenital area, paralysis, paresis, head tilt, circling, vocalizations, non-purposeful movements and/or were unable to eat or drink. Those mice reaching this state prior to the completion of the 5 day infection period were euthanized. The number of mice surviving between control and treatment groups was compared and analyzed for statistical significance using a log rank test.

[8] = system: ESKAPE pathogens; test: MIC micro broth dilution assay, statements and stacked scores over all ESKAPE pathogens; type: cell-based; conditions: letters E,S,K,A,P,E = ESKAPE pathogens, — = none
In short: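 Overnight cultures of multidrug-resistant clinical isolates, diluted 1 in 1,000 (Gram-positives in TSB, Gram-negatives in LB), were exposed to decreasing compound concentrations in DMF (≤2.0%) at 37° C. MIC was read visually as no turbidity after 24 hours, in triplicate. Broad-spectrum activity was ranked by stacked scores.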

[9] = system: Enterococcus faecium; test: MIC micro broth dilution assay; type: cell-based; conditions: for MIC: Enterococcus faecium
In short: (§2)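 Strains were multidrug-resistant clinical isolates grown in LB (Gram-negative) or TSB (Gram-positive), diluted 1:1,000 before compound addition.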

[10] = system: S. aureus; test: Resistance serial passage assay; type: cell-based, Staphylococcus aureus; conditions: 8 passages, concentration doubled each day
Procedure: ESKAPE pathogens were grown overnight in liquid media at 37° C. These cultures were then diluted 1:100 in fresh media, and seeded into a 96-well plate. Lead bis-cyclic guanidines or control agents were added to respective wells at half MIC concentrations. Plates were then incubated for 24 hours at 37° C., with bacteria removed from these cultures on the following day, to inoculate fresh media (1:100 dilution) containing compounds at a 2-fold higher concentrations. These were then grown overnight, and the procedure repeated for a total of eight days. […] Each experiment was performed in triplicate, yielding identical results.

[11] = system: Acinetobacter baumannii; test: MIC micro broth dilution assay; type: cell-based; conditions: for MIC: Acinetobacter baumannii
In short: as §2

[12] = system: Pseudomonas aeruginosa; test: MIC micro broth dilution assay; type: cell-based; conditions: for MIC: Pseudomonas aeruginosa
Procedure: For this study we used a representative panel of multi-drug resistant clinical ESKAPE pathogen isolates (Supplemental Table S6).^42 43 3a, 44 45 Gram-positive organisms were grown in tryptic soy broth media (TSB), whilst Gram-negative organisms were grown in lysogeny Broth (LB), as described by us previously. ^43 MIC and MBC determination assays.
Broth cultures of ESKAPE strains were grown overnight before being diluted 1 in 1,000 in fresh media. Sterile 96-well plates were loaded with culture and compounds (in DMF) were added at decreasing concentrations to equal a total volume of 200 μl per well. Care was taken to not add more than 2.0% DMF to any well. Plates were then incubated at 37° C., and MICs determined after 24 hours by visual inspection for a lack of turbidity in wells. All assays were performed in triplicate with identical results obtained. For both the scaffold ranking and positional scanning samples, relative broad-spectrum activity was determined via stacked scores: […]

`CCCCCCCN1C(=N)N(CCCC[C@H]2CNC(=N)N2CCc2cccc(C(F)(F)F)c2)C[C@@H]1CC1CCCCC1` [Compound 7] showed an MBC ([1]; Enterococcus faecium) of 2.16 to 3.28 µM (≈ 1.28 to 1.94 µg/mL), an MBC [1] of 3.27 µM (≈ 1.93 µg/mL) and an MBC ([2]; Klebsiella pneumoniae) of 2.16 to 3.28 µM (≈ 1.28 to 1.94 µg/mL). The MBC [2] was 2.16 µM (≈ 1.28 µg/mL), the MBC ([3]; Staphylococcus aureus) was 2.16 to 3.28 µM (≈ 1.28 to 1.94 µg/mL) and the MBC [3] was 3.28 µM (≈ 1.94 µg/mL). It also gave an MBC [4] of 6.36 µM (≈ 3.76 µg/mL), an MBC [5] of 13.7 µM (≈ 8.12 µg/mL) and an MBC ([6]; Acinetobacter baumannii) of 2.16 to 3.28 µM (≈ 1.28 to 1.94 µg/mL). For the same compound, the MBC [6] was 3.23 µM (≈ 1.91 µg/mL), the “survival of infected mice over 5 day infection period” value [7] was 1 mouse lost on each of days 2 and 4 and the “pathogens against which the compound showed activity at 4 ug/ml” value ([8]; dose 4 ug/ml) was “ESAP”. The “pathogens against which the compound showed activity at 5 ug/ml” value ([8]; dose 5 ug/ml) was “ESKAPE”, the “pathogens against which the compound showed activity at 10 ug/ml” value ([8]; dose 10 ug/ml) was “ESKAPE” and the “pathogens against which the compound showed activity at 25 ug/ml” value ([8]; dose 25 ug/ml) was “ESKAPE”. The “stacked score activity, 100/MIC, E” value ([9]; E. faecium) was 33, the MIC ([9]; E. faecium isolate 1406) was 2 µM (≈ 1.18 µg/mL) and the MIC ([9]; E. faecium isolate 1407) was 2 µM (≈ 1.18 µg/mL). It also gave an MIC ([9]; E. faecium isolate 1432) of 2 µM (≈ 1.18 µg/mL), an MIC ([9]; E. faecium isolate 1438) of 2 µM (≈ 1.18 µg/mL) and an MIC ([9]; E. faecium isolate 1439) of 2 µM (≈ 1.18 µg/mL). For the same compound, the MIC ([9]; E. faecium isolate 1443) was 2 µM (≈ 1.18 µg/mL), the MIC ([9]; E. faecium isolate 1444) was 2 µM (≈ 1.18 µg/mL) and the MIC ([9]; E. faecium isolate 1449) was 2 µM (≈ 1.18 µg/mL). For the same compound, the MIC ([9]; E. faecium isolate 1450) was 2 µM (≈ 1.18 µg/mL), the MIC ([9]; E. faecium isolate 1451) was 2 µM (≈ 1.18 µg/mL) and the MIC ([9]; purified compound, Table 1) was 1.52 µM (≈ 0.898 µg/mL). The “increase in MIC after serial passage” value [10] was “four-fold”, the “stacked score activity, 100/MIC, A” value ([11]; A. baumannii) was 25 and the MIC ([11]; A. baumannii isolate 1403) was 2 µM (≈ 1.18 µg/mL). It also gave an MIC ([11]; A. baumannii isolate 1643) of 2 µM (≈ 1.18 µg/mL), an MIC ([11]; A. baumannii isolate 1644) of 2 µM (≈ 1.18 µg/mL) and an MIC ([11]; A. baumannii isolate 1647) of 2 µM (≈ 1.18 µg/mL). For the same compound, the MIC ([11]; A. baumannii isolate 1648) was 2 µM (≈ 1.18 µg/mL), the MIC ([11]; A. baumannii isolate 1649) was 2 µM (≈ 1.18 µg/mL) and the MIC ([11]; A. baumannii isolate 1650) was 2 µM (≈ 1.18 µg/mL). The MIC ([11]; A. baumannii isolate 1651) was 2 µM (≈ 1.18 µg/mL), the MIC ([11]; A. baumannii isolate 1653) was 2 µM (≈ 1.18 µg/mL) and the MIC ([11]; A. baumannii isolate 1654) was 2 µM (≈ 1.18 µg/mL). The MIC ([11]; purified compound, Table 1) was 1.52 µM (≈ 0.898 µg/mL), the MIC ([12]; P. aeruginosa isolate 1414) was 3 µM (≈ 1.77 µg/mL) and the MIC ([12]; P. aeruginosa isolate 1415) was 3 µM (≈ 1.77 µg/mL). It also gave an MIC ([12]; P. aeruginosa isolate 1416) of 2 µM (≈ 1.18 µg/mL), an MIC ([12]; P. aeruginosa isolate 1417) of 3 µM (≈ 1.77 µg/mL) and an MIC ([12]; P. aeruginosa isolate 1418) of 7 µM (≈ 4.14 µg/mL). It also gave an MIC ([12]; P. aeruginosa isolate 1419) of 3 µM (≈ 1.77 µg/mL), an MIC ([12]; P. aeruginosa isolate 1420) of 5 µM (≈ 2.95 µg/mL) and an MIC ([12]; P. aeruginosa isolate 1421) of 2 µM (≈ 1.18 µg/mL). The MIC ([12]; P. aeruginosa isolate 1422) was 5 µM (≈ 2.95 µg/mL), the MIC ([12]; P. aeruginosa isolate 1423) was 2 µM (≈ 1.18 µg/mL) and the MIC ([12]; purified compound, Table 1) was 1.52 µM (≈ 0.898 µg/mL). The “concentration inhibiting 90% of isolates” value ([12]; panel of P. aeruginosa clinical isolates) was 10 µM.
